Here are results for 19 compounds from publication PMC8711653, “The Nature of Diamino Linker and Halogen Bonding Define Selectivity of Pyrrolopyrimidine-Based LIMK1 Inhibitors” (Frontiers in Chemistry, 2021).

The target of data set [1] is T1, LIMK1 (Homo sapiens, UniProt P53667).
T1 construct: purchased Promega
Put plainly: 33P-ATP radiotracer assay, LIMK1 (Reaction Biology Corporation). Type of data set: biochemical. As to conditions: for IC50: 33P transfer from ATP to cofilin, 10 μM 33P-ATP, 1 μM cofilin, triplicate. The protocol: (§1) To measure the selectivity against LIMK isoforms, the radiotracer assay measuring the transfer of ^33P from ATP to the substrate was used since there was no ADP-Glo™ kinase assay system available for LIMK2 (Table 2).
(§2) The radiotracer assay of LIMK1 and LIMK2 was performed by Reaction Biology Corporation. Compounds were tested in 10-dose IC50 mode with fivefold series dilution starting at 10 μM. Reactions were carried out at 10 μM ^33P-ATP, 1 μM cofilin substrate, and 50 nM LIMK1 (final concentration). Kinase activity is determined by the transfer or radioactive ^33P from ATP to cofilin substrate. Radiotracer assay is performed as triplicate.

For data set [2], the target named is T1, LIMK1. Put plainly: LIMK1 ADP-Glo kinase assay (Promega). It counts as biochemical. As to conditions: 0.1 μM compound. As for the experimental part: ADP-Glo kinase assay was performed in 96-well plate format using the Promega kinase assay system. LIMK1 (0.1 μg) and compounds (0.1–100 μM) were dissolved in kinase reaction buffer and incubated for 30 min at rt. The reaction was then initiated by the addition of ATP (10 μM, 5 μl) and incubation for 30 min at 30°C. The reaction was then quenched with addition of 25 μl of ADP-Glo reagent. Kinase detection reagent (50 μl) was added and incubated for 30 min prior to luminescence reading on the BMG Labtech PHERAstar FS plate reader. Kinase assay is performed as duplicate.

The target in data set [3] is T2, LIMK2 (Homo sapiens, UniProt P53671).
T2 construct: purchased Reaction Biology Corporation
T2 sequence (P53671 whole entry): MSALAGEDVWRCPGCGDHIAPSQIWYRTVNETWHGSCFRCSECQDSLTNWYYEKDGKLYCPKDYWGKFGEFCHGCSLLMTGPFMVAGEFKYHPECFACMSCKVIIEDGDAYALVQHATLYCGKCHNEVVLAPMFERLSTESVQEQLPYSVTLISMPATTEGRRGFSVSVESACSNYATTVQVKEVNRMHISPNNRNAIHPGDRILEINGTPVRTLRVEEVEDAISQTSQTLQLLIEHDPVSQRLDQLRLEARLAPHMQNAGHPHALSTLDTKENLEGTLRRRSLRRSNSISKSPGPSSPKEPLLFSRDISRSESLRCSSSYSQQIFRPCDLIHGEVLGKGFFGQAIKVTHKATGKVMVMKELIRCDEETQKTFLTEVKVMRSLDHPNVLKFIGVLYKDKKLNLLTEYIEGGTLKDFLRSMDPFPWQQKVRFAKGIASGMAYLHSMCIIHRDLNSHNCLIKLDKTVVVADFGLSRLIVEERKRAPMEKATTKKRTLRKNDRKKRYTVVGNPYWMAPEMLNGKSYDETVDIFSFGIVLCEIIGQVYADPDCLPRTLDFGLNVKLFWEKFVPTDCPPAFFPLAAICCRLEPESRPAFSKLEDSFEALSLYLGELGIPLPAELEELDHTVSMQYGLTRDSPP
Put plainly: 33P-ATP radiotracer assay, LIMK2 (Reaction Biology Corporation). It counts as biochemical. As for the experimental part:
as §1, §2

The target of data set [4] is T2, LIMK2. As to conditions: Figure 1A, known inhibitors, ref Harrison et al., 2009, Boland et al., 2015, Yin et al., Yi et al., 2017; cited from earlier work.
Data set [5] has as its target T1, LIMK1. Particulars: Figure 1A, known inhibitors, ref Harrison et al., 2009, Boland et al., 2015, Yin et al., Yi et al., 2017; cited from earlier work.
A further data set deals with C6 cells. In words: Scratch (wound closure) assay, cell migration velocity. Type of data set: cell-based. Particulars: live imaging 24 h, compared to untreated cell. As for the experimental part: Cofilin, the substrate for LIMK1, regulates the actin skeleton and thus regulates cell migration ([Bravo-Cordero et al., 2013]). To understand the inhibitory effect of compounds 1 and 22–26 in vitro, scratch assays were performed. The artificial wound was created by “scratching” in the middle of the well with confluent C6 cells in culture. Live imaging was captured for 24 h to measure the distance of cell migration (Figure 3; Supplementary video).
The velocity of cell migration is measured using the C6 cell line in the 24-well plate. Cells were seeded at 100,000 cells/well. After 24 h, cells were washed with warm PBS and treated with the inhibitors. Directly following the treatment, cells were moved into a preheated stage-top incubator maintained at 37°C/5% CO2, using the ZEISS Axio Observer live cell microscope, fitted with an Axiocam 702 mono camera. Cells were imaged once every 10 min using a ×10 objective with phase contrast for a 24-h period. Cell migration was analysed using Fiji ImageJ (NIH) and Chemotaxis Migration Tool (ibidi).

The mark [6] stands for this setting: Promega ADP-Glo kinase assay, Table 2, read-out: % LIMK1 inhibition at 0.1 μM.
Where [7] appears, read: 33P transfer from ATP to cofilin, 10 μM 33P-ATP, 1 μM cofilin, triplicate.
Setting [8] is: 33P radiotracer assay, top concentration 10 μM.
Where [9] appears, read: ADP-Glo assay, read-out: LIMK1 inhibitory activity at 0.1 μM.
The mark [10] stands for this setting: Promega ADP-Glo kinase assay, Table 1, read-out: % LIMK1 inhibition at 0.1 μM.
Where [11] appears, read: Promega ADP-Glo kinase assay, Table 1, read-out: % LIMK1 inhibition at 0.1 μM (dash = no inhibition).

Like-named read-outs stand apart in the source and are kept apart here.

T1 sequence (P53667 whole entry): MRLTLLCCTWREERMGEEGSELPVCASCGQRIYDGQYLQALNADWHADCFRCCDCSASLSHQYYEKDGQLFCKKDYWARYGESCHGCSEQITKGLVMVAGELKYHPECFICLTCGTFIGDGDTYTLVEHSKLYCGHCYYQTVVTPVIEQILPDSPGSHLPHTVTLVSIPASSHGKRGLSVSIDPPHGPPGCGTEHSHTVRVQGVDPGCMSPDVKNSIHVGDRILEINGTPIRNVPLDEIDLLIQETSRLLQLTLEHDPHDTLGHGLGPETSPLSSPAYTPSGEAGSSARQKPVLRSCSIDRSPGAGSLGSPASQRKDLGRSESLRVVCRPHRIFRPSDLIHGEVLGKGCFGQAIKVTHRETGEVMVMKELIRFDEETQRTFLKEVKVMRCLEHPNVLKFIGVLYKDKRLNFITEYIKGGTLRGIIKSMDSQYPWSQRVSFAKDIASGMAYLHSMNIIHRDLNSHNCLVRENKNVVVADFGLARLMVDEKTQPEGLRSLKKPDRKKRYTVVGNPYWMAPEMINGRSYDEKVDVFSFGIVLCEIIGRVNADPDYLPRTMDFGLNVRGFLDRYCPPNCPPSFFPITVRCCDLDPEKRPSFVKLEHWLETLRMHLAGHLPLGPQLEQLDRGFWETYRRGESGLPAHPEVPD

One may read the melting point as the temperature of the solid-liquid transition. For orientation: IC50 means the midpoint of a concentration-inhibition curve. `Cc1c[nH]c2ncnc(N[C@@H]3CCCC[C@H]3NC(=NC#N)Nc3cccc(Br)c3)c12` [Compound 23, 1-(3-Bromophenyl)-2-cyano-3-((1R,2R)-2-((5-methyl-7H-pyrrolo[2,3-d]pyrimidin-4-yl)amino)cyclohexyl)guanidine] showed a melting point of 127 to 128 °C. The 50% inhibitory concentration (IC50) against LIMK1 [1] is 2.83 µM. The inhibition at 0.1 µM on LIMK1 [2] (setting [6]) stood at 96.7 ± 0.1%. This compound came in with an IC50 on LIMK2 [3] (setting [7]) of 2.65 µM.

For `Cc1c[nH]c2ncnc(N[C@H]3CCCC[C@@H]3NC(=NC#N)Nc3cccc(Br)c3)c12` [Compound 25, 1-(3-Bromophenyl)-2-cyano-3-((1S,2S)-2-((5-methyl-7H-pyrrolo[2,3-d]pyrimidin-4-yl)amino)cyclohexyl)guanidine], the melting point was in the range of 127 to 128 °C. At LIMK1 [1] (10 μM compound, 33P radiotracer assay), the inhibition at 10 µM amounted to 47%. In addition, the inhibition at 0.1 µM on LIMK1 [2] (setting [6]) was found to be 96 ± 0.5%. Further, the “inhibition of LIMK2 (in words)” value against LIMK2 [3] (33P radiotracer assay) is “no significant inhibition of LIMK2”. This compound registered an IC50 against LIMK2 [3] (setting [8]) greater than 10 µM.

Turning to `Cc1c[nH]c2ncnc(N[C@H]3CC[C@H](NC(=NC#N)Nc4cccc(Br)c4)CC3)c12` [Compound 18, 1-(3-Bromophenyl)-2-cyano-3-((1r,4r)-4-((5-methyl-7H-pyrrolo[2,3-d]pyrimidin-4-yl)amino)cyclohexyl)guanidine], the melting point lay within 127 to 128 °C. Besides, at LIMK1 [2] (setting [9]), the inhibition at 0.1 µM was 69%. Moreover, the inhibition at 0.1 µM on LIMK1 [2] (setting [10]) was 69.2 ± 1.7%.

On to `CN(C)C(=O)Oc1cccc(NC(=O)C2(CN)CCN(c3ncnc4[nH]cc(Cl)c34)CC2)c1` [Compound 4], for which the IC50 on LIMK2 [4] is 0.0016 µM; at LIMK1 [5], 0.024 µM.

For `Cc1c[nH]c2ncnc(NCCNC(=NC#N)Nc3cccc(Br)c3)c12` [Compound 9, 1-(3-Bromophenyl)-2-cyano-3-(2-((5-methyl-7H-pyrrolo[2,3-d]pyrimidin-4-yl)amino)ethyl)guanidine], the melting point was 86 to 88 °C. Also, the inhibition at 0.1 µM on LIMK1 [2] (setting [10]) came out at 29.4 ± 10.3%.

`Cc1c[nH]c2ncnc(NCCCNC(=NC#N)Nc3cccc(I)c3)c12` [Compound 13, 2-Cyano-1-(3-iodophenyl)-3-(3-((5-methyl-7H-pyrrolo[2,3-d]pyrimidin-4-yl)amino)propyl)guanidine] came in with a melting point of 91 to 93 °C. In addition, the inhibition at 0.1 µM at LIMK1 [2] (setting [10]) turned out to be 17.8 ± 7.1%.

In the case of `Cc1c[nH]c2ncnc(N[C@H]3CCCC[C@@H]3NC(=NC#N)Nc3cccc(I)c3)c12` [Compound 26, 2-Cyano-1-(3-iodophenyl)-3-((1S,2S)-2-((5-methyl-7H-pyrrolo[2,3-d]pyrimidin-4-yl)amino)cyclohexyl)guanidine], the melting point fell in the range of 128 to 129 °C. Inhibition against LIMK1 [1] was half-maximal at 8.36 µM (IC50). Besides, on LIMK1 [2] (setting [6]), the inhibition at 0.1 µM amounted to 94.9 ± 0.8%. At LIMK2 [3] (33P radiotracer assay), the “inhibition of LIMK2 (in words)” value is reported as “no significant inhibition of LIMK2”. At LIMK2 [3] (setting [8]), this compound had an IC50 greater than 10 µM.

As for `Cc1c[nH]c2ncnc(NCCCCNC(=NC#N)Nc3cccc(I)c3)c12` [Compound 16, 2-Cyano-1-(3-iodophenyl)-3-(4-((5-methyl-7H-pyrrolo[2,3-d]pyrimidin-4-yl)amino)butyl)guanidine], the melting point lay within 90 to 91 °C. Moreover, the inhibition at 0.1 µM at LIMK1 [2] (setting [10]) worked out at 41 ± 2.5%.

Compound `Cc1c[nH]c2ncnc(NCCCNC(=NC#N)Nc3cccc(Cl)c3)c12` [Compound 11, 1-(3-Chlorophenyl)-2-cyano-3-(3-((5-methyl-7H-pyrrolo[2,3-d]pyrimidin-4-yl)amino)propyl)guanidine] had a melting point of 88 to 90 °C. Also, at LIMK1 [2] (setting [10]), the inhibition at 0.1 µM was 15 ± 10.7%.

With `Cc1c[nH]c2ncnc(NCCNC(=NC#N)Nc3cccc(I)c3)c12` [Compound 10, 2-Cyano-1-(3-iodophenyl)-3-(2-((5-methyl-7H-pyrrolo[2,3-d]pyrimidin-4-yl)amino)ethyl)guanidine], the melting point was 88 to 89 °C. Further, the inhibition at 0.1 µM on LIMK1 [2] (setting [10]) turned out to be 17.8 ± 7.1%.

Turning to `Cc1c[nH]c2ncnc(N[C@@H]3CCCC[C@H]3NC(=NC#N)Nc3cccc(I)c3)c12` [Compound 24, 2-Cyano-1-(3-iodophenyl)-3-((1R,2R)-2-((5-methyl-7H-pyrrolo[2,3-d]pyrimidin-4-yl)amino)cyclohexyl)guanidine], the melting point lay within 128 to 129 °C. On LIMK1 [1], this compound yielded an IC50 of 5.08 µM. The inhibition at 0.1 µM on LIMK1 [2] (setting [6]) was 93.2 ± 1.2%. Besides, 3.38 µM corresponded to half-maximal inhibition at LIMK2 [3] (setting [7]) (IC50).

For `Cc1c[nH]c2ncnc(NCCCNC(=NC#N)Nc3cccc(Br)c3)c12` [Compound 12, 1-(3-Bromophenyl)-2-cyano-3-(3-((5-methyl-7H-pyrrolo[2,3-d]pyrimidin-4-yl)amino)propyl)guanidine], the melting point lay in the range of 88 to 89 °C. Besides, the “LIMK1 inhibitory activity at 0.1 μM (in words)” value (from here on “LIMK1 inhibitory activity”) on LIMK1 [2] (ADP-Glo assay) is “abolished the inhibitory activity”. The inhibition at 0.1 µM at LIMK1 [2] (setting [11]) is less than 0%.

With `Cc1c[nH]c2ncnc(NCCNC(=NC#N)Nc3cccc(Cl)c3)c12` [Compound 8, 1-(3-Chlorophenyl)-2-cyano-3-(2-((5-methyl-7H-pyrrolo[2,3-d]pyrimidin-4-yl)amino)ethyl)guanidine], the melting point lay in the range of 87 to 88 °C. At LIMK1 [2] (ADP-Glo assay), the “LIMK1 inhibitory activity” value is “completely abolished inhibitory activity”. At LIMK1 [2] (setting [11]), the inhibition at 0.1 µM is less than 0%.

Turning to `Cc1c[nH]c2ncnc(N[C@H]3CC[C@H](NC(=NC#N)Nc4cccc(I)c4)CC3)c12` [Compound 19, 2-Cyano-1-(3-iodophenyl)-3-((1r,4r)-4-((5-methyl-7H-pyrrolo[2,3-d]pyrimidin-4-yl)amino)cyclohexyl)guanidine], the melting point lay in the range of 129 to 130 °C. The inhibition at 0.1 µM on LIMK1 [2] (setting [10]) was found to be 66.6 ± 8.8%.

As to `Cc1c[nH]c2ncnc(N3CCN(C(=NC#N)Nc4cccc(I)c4)[C@@H](C)C3)c12` [Compound 22, (S)-N′-Cyano-N-(3-iodophenyl)-2-methyl-4-(5-methyl-7H-pyrrolo[2,3-d]pyrimidin-4-yl)piperazine-1-carboximidamide], the melting point fell in the range of 130 to 131 °C. For the same compound, the IC50 against LIMK1 [1] was 0.00013 ± 1e-05 µM. Also, the cell migration velocity result with C6 cells is “lowered the migration even further”. Moreover, the inhibition at 0.1 µM on LIMK1 [2] (setting [6]) came to 95.5 ± 0.4%. The IC50 at LIMK2 [3] (setting [7]) worked out at 0.00047 ± 1e-05 µM.

For `Cc1c[nH]c2ncnc(NCCCCNC(=NC#N)Nc3cccc(Br)c3)c12` [Compound 15, 1-(3-Bromophenyl)-2-cyano-3-(4-((5-methyl-7H-pyrrolo[2,3-d]pyrimidin-4-yl)amino)butyl)guanidine], the melting point lay in the range of 97 to 98 °C. For the same compound, the inhibition at 0.1 µM at LIMK1 [2] (setting [9]) stood at 47%. For the same compound, the inhibition at 0.1 µM on LIMK1 [2] (setting [10]) worked out at 47.1 ± 1.6%.

Compound `Cc1c[nH]c2ncnc(N[C@H]3CC[C@H](NC(=NC#N)Nc4cccc(Cl)c4)CC3)c12` [Compound 17, 1-(3-Chlorophenyl)-2-cyano-3-((1r,4r)-4-((5-methyl-7H-pyrrolo[2,3-d]pyrimidin-4-yl)amino)cyclohexyl)guanidine] had a melting point of 120 to 122 °C. Further, at LIMK1 [2] (setting [9]), the inhibition at 0.1 µM came to 42%. Besides, the inhibition at 0.1 µM on LIMK1 [2] (setting [10]) was determined as 41.7 ± 0.1%.

In the case of `Cc1c[nH]c2ncnc(N3CCN(/C(=N/C#N)Nc4cccc(Br)c4)[C@@H](C)C3)c12` [Compound 1, reference compound], the IC50 against LIMK1 [1] was determined as 0.00028 ± 1e-05 µM; at LIMK2 [3] (setting [7]), 0.00086 ± 5e-05 µM. Further, the cell migration velocity result in the data set with C6 cells is “reduced the cell velocity by twofold”. In addition, at LIMK1 [2] (setting [10]), the inhibition at 0.1 µM was 94.3 ± 0.2%.

`Cc1c[nH]c2ncnc(NCCCCNC(=NC#N)Nc3cccc(Cl)c3)c12` [Compound 14, 1-(3-Chlorophenyl)-2-cyano-3-(4-((5-methyl-7H-pyrrolo[2,3-d]pyrimidin-4-yl)amino)butyl)guanidine] displayed a melting point of 90 to 91 °C. Besides, the “LIMK1 inhibitory activity” value at LIMK1 [2] (ADP-Glo assay) is given as “completely abolished inhibitory activity”. For the same compound, the inhibition at 0.1 µM at LIMK1 [2] (setting [11]) is less than 0%.
